# Test results as given in US10682382B2, “Composition for relieving pain, stress and insomnia” (priority 2014, dated 2020).
# Legend:
# [1] = tested on: REM sleep deprivation induced hyperalgesia; assay: REM sleep deprivation induced hyperalgesia (modified flowerpot technique, hot plate method); assay type: in vivo, Male albino Wistar rats
# Source text: The modified flowerpot technique was used to induce REM sleep deprivation. In this method, rats are placed on elevated platforms in a water tank for 96 hrs. During REM sleep muscle atonia occurs as a result of which when an animal enters REM sleep it falls from the platform into the water. Therefore the animal wakes up and climbs onto platform again. This method prevents REM sleep and permits other sleep stages.
# The paws of rats are very sensitive to heat at temperatures which are not damaging to the skin. The responses shown by rats placed on a hot plate are jumping, withdrawal of the paws and licking of the paws. This test is thus used to assess the pain threshold and the animal's response to mild painful stimuli.
# To induce sleep deprivation, an acrylic box (24 cm×18 cm×18 cm) with platforms of height 9 cm and 6 cm diameter was used. Water was filled, in the box upto a level of 1 cm below the platform. 6 animals were placed on each platform for 96 hrs. One platform was kept vacant to reduce immobilization stress. […] The responses of the animals to painful stimuli were observed (licking of paws, jumping, paw withdrawal) and the duration of time the animal could remain on the hot plate was recorded. […] One hour after application of the test substances, the animals were again subjected to the hot plate and the response was evaluated. […]
# [2] = tested on: carrageenan induced paw oedema; assay: Carrageenan induced paw oedema in rats (topical application, plethysmographic paw volume); details: mean ± SD, n = 6; for Paw volume, carrageenan induced paw oedema: topical application 7 days + day 8; for Percentage change in carrageenan induced paw oedema (paw volume): ((Vt−Vo)/Vo)×100
structure (smiles),measurement,setting,value
O=C(O)Cc1ccccc1Nc1c(Cl)cccc1Cl [Diclofenac],Increase in paw withdrawal time,"[1]; after minus before formulation, hot plate",6.00
same,"Paw withdrawal time, before formulation","[1]; hot plate 50±2° C. after 96 hrs REM sleep deprivation, before application of test substance, cut-off 60 seconds, mean ± SD, n = 6",6.67 ± 3.33 s
same,"Paw volume, carrageenan induced paw oedema",[2]; 0 hr (immediately before carrageenan),0.23 ± 0.05
same,"Paw volume, carrageenan induced paw oedema",[2]; 2 hr after carrageenan,0.67 ± 0.06
same,Percentage change in carrageenan induced paw oedema (paw volume),[2]; 2 hr vs 0 hr,202.5 ± 79.48%
same,"Paw volume, carrageenan induced paw oedema",[2]; 5 hr after carrageenan,0.38 ± 0.05
same,Percentage change in carrageenan induced paw oedema (paw volume),[2]; 5 hr vs 0 hr,75 ± 82.15 %
same,"Paw volume, carrageenan induced paw oedema",[2]; 24 hr after carrageenan,0.20 ± 0.05
same,Percentage change in carrageenan induced paw oedema (paw volume),[2]; 24 hr vs 0 hr,−16.66 ± 25.81 %
